Laboratory results from patent publication US20250161478A1, “LINKER PAYLOADS AND CONJUGATES THEREOF” (priority 2021, published 2025).
Where two headings read alike, the source gives them in different places.

How the values were obtained:
[1] = tested on: B16-F10 mouse melanoma tumors; test: In vivo efficacy of PNU-ADCs in B16-F10 mouse melanoma model (Example 31); design: species or system mice
Method: In vivo anti-tumor efficacy of anti-TYRP1 ADCs (TAPeD, FLPeD, CHPeD and FLCPeMg) was evaluated in the B16-F10 mouse melanoma model as described above. […] Tumor growth was followed by palpation, and ADC dosings were administered when tumor sizes reached 60-110 mm^3, between 2-7 days after the inoculation. […] A single i.v. injection of 5 mg/kg ADC in PBS was given on the injection day and the tumor sizes were followed for at least 28 days. […] Another xenograft experiment was performed similarly as above. In this experiment, 10 xenografted mice received no treatment, while 10 xenografted mice were given three i.v. doses of 10 mg/kg TA99 antibody on days 2, 7 and 12 after the inoculation (3×10 mg/kg at 5 day intervals). In every one of these 20 mice the tumors grew to >200 mm^3 during 28 days' follow-up period.

[2] = tested on: IGR-1 human melanoma cells; test: Cytotoxicity of ADCs, PrestoBlue cell viability, IGR-1 cells; format: cell-based
Method: (§1) Toxicity of anti-TYRP ADCs was tested with SK-MEL-28 (ATCC: HTB®-72™) SK-MEL-30 (DSMZ: ACC 151) and/or IGR-1 (DSMZ: ACC 236) human melanoma cells.
IGR-1 cells were seeded in 96-well plate, 2000 cells/well, and cultivated in 10% FBS/DMEM-medium under standard cell culture conditions. After overnight culture, the diluted ADCs or unconjugated antibodies (concentration range 0.1 nM-300 nM) were added to cells, and incubated for 3-5 days. The viability of the cells was evaluated with PrestoBlue cell viability reagent.
(§2) The AVG % values and standard deviations were transferred to GraphPad Prism 9.1.2.

[3] = tested on: SK-MEL-30 human melanoma cells; test: Cytotoxicity of ADCs, PrestoBlue cell viability, SK-MEL-30 cells; format: cell-based; conditions: incubated 3-5 days, ranges are over n experiments
Method: as §1
SK-MEL-30 were seeded in 96-well plate, 2000 cells/well or 3000 cells/well and cultivated in 10% FBS/RPMI 1640-medium under standard cell culture conditions. After overnight culture, diluted ADCs or antibodies were added to the cells, and incubated for 3-5 days. For cell control, the cells were treated with medium without ADC. The viability of the cells was evaluated with PrestoBlue cell viability reagent.
as §2

[4] = In vivo tolerability of PNU-ADCs in normal mice; design: species or system C57BL/6J mice; conditions: for Dose-limiting toxicity dose level / MTD (maximum tolerated dose): single i.v. dose; for Dose-limiting toxicity dose level: n=3, followed up to 30 days; for MTD (maximum tolerated dose): n=3, next lower dose below the dose-limiting toxicity dose level
Method: Tolerability and safety of ADCs conjugated with PNU-EDA linker-payloads were tested in normal C57BL/6J mice. Female young adult mice at the age of 8-10 weeks were used, 3 mice/group (n=3). […] Clinical signs, body weight and general behavior of the animals were observed regularly. Dose-limiting toxicity was observed as either over 10% reduction of average body weight in the group or acute toxicity in any animal in the group. Maximum tolerated dose (MTD) was determined as the next lower dose below the dose-limiting toxicity dose level. ADCs were prepared as described above and a single i.v. dose of the ADC was given on the first day of the study. The mice were followed for up to 30 days if no dose-limiting toxicity was observed.

HL-60 cells = test: Cytotoxicity of anti-CD33 ADCs in HL-60 cells; format: cell-based; conditions: HL-60 cells treated for 5 days
Source text: as §2

MOLM-13 cells = test: Cytotoxicity of anti-CD33 ADCs in MOLM-13 cells; format: cell-based; conditions: MOLM-13 cells treated for 3 days
Source text: as §2

KG-1 cells = test: Cytotoxicity of anti-CD33 ADCs in KG-1 cells; format: cell-based; conditions: for IC50: KG-1 cells treated for 3 or 4 days, n = 3
Source text: as §2

K-562 (low CD33) cells = test: Cytotoxicity of anti-CD33 ADCs in K-562 cells; format: cell-based; conditions: K-562 (low CD33) cells treated for 3 days
Source text: as §2

[5] = tested on: Ramos.2G6.4C10 (no CD33 expression) cells; test: Cytotoxicity of anti-CD33 ADCs in Ramos cells; format: cell-based
Source text: as §2

[6] = tested on: Daudi (no CD33 expression) cells; test: Cytotoxicity of anti-CD33 ADCs in Daudi cells; format: cell-based
Source text: as §2

[7] = tested on: HL-60 acute myeloid leukemia (AML) cell xenograft tumors; test: In vivo efficacy of anti-CD33 ADCs in HL-60 leukemia xenograft; conditions: single i.v. 10 mg/kg
Method: In vivo anti-leukemia xenograft efficacy was evaluated for anti-CD33 ADCs LNAuM (DAR=8.0) and GMAuM (DAR=8.0), as well as anti-CD33 antibodies LN and GM. HL-60 acute myeloid leukemia (AML) cells were obtained from the ATCC and cultured according to the manufacturer's instructions. The study was performed at the TCDM/Central Animal Laboratory, University of Turku, Finland, according to the appropriate ethical committee approval. Cells for inoculation to mice were prepared in vigorous exponential growth phase. 2 million cells in 50% Matrigel were inoculated s.c. to the flank of each mouse (female athymic nude mice between 8-10 weeks of age). Clinical signs and general behavior of the animals was observed regularly. […] Tumor growth was followed by palpation. After caliper measurement, tumor volume was calculated according to 0.5×length×width^2. The first dosings were administered when average tumor volume reached 100 mm^3. […] Intravenous (i.v.) treatment of 10 mg/kg either antibody or ADC in PBS was given once (single dose regimen), while the control group received no treatment.

[8] = ADC concentration in serum by ELISA (systemic exposure); format: in vivo, mice; conditions: trapezoidal method, 10 mg/kg i.v.
Method: Serum samples (from 40 μl blood) were taken from each mouse in the treatment groups as well as two mice in the control group to follow systemic exposure of the compounds on day 1, day 5 and day 9 after dosing. ADC concentrations in the serum samples were analyzed by ELISA using FastELISA Human immunoglobulin quantification kit (RD-Biotech) according to the manufacturer's instructions. Between 1 d-9 d, LNAuM had better systemic exposure than GMAuM and GMAuM was eliminated faster from circulation by Day 9 than LNAuM.

[9] = tested on: CD33- cell lines Ramos and Daudi versus CD33+ cells; test: In vitro therapeutic window, CD33- versus CD33+ cell lines; format: cell-based; conditions: IC50 not reached at 300 nM in Ramos and Daudi versus CD33+ cells
[10] = tested on: B16-F10 mouse melanoma tumors; test: In vivo efficacy in B16-F10 syngeneic tumor mice (Example 9); design: species or system C57BL/6J mice; conditions: single i.v. 5 mg/kg two days after inoculation, six mice/group
Source text: In vivo anti-tumor efficacy of ADC of monoclonal TA99 IgG2a antibody, glycoconjugated TA99 ADC with DBCO-Val-Ser(GlcA)-EDA-PNU payloads (TA99-PNU ADC, DAR=2) and TA99 ADC with maleimidoacetyl-EDA-PNU payloads (TA99-M-PNU ADC, DAR=4), prepared and maleimide-stabilized as described above, was compared to non-treated mice. B16-F10 mouse melanoma cells were obtained from the ATCC (USA) and cultured according to the manufacturer's instructions to study efficacy of antibody-drug conjugates in highly treatment-resistant syngeneic tumors in female adult C57BL/6J mice at the age of about 8-weeks. […] Tumor growth was followed by palpation. […] The first dosings were administered two days after the inoculation due to the high take rate and very rapid growth of the tumors. Mice were randomly divided into study groups. […] Unconjugated antibody (TA99/anti-gp75, Invivogen) was used in this study as the control treatment.

[11] = single 5 mg/kg i.v. dose on days 2-7 when tumors reach 60-110 mm^3, 6 mice/group, at least 28 days
[12] = 5 mice/group, 30 days follow-up

Substance: Chimeric TA99-DBCO-Val-Ser(G1cA)-EDA-PNU [CHPeD]
- Number of mice with <200 mm^3 tumor at end of study [1, 11]: 2

Substance: Flanvotumab-DBCO-Val-Ser(GlcA)-EDA-PNU [FLPeD]
- IC50 values against IGR-1 cells (in words) [2]: picomolar
- IC50 [3]: 1.3 to 8.2 nM
- Number of mice with <200 mm^3 tumor at end of study [1, 11]: 2
- Dose-limiting toxicity dose level [4]: 15 mg/kg
- MTD (maximum tolerated dose) [4]: 10 mg/kg

Substance: FLCPeMala: cysteine engineered flanvotumab HC N299C conjugated with PeMala (MA-Ac-β-Ala-EDA-PNU), DAR 2.0
- IC50 values against IGR-1 cells (in words) [2]: picomolar
- MTD (maximum tolerated dose) [4]: 5 mg/kg

Substance: lintuzumab-maleimidoacetyl-β-Ala-Val-Ser(Glc)-PAB-MMAU [LNAuM]
- IC50 (HL-60 cells; n = 4, read-out: IC50 (AVG ± standard deviation)): 0.272 ± 0.181 nM
- IC50 (HL-60 cells; range over n experiments, read-out: IC50): 0.024 to 0.459 nM
- IC50 (MOLM-13 cells; n = 3, read-out: IC50 (AVG ± standard deviation)): 0.039 ± 0.016 nM
- IC50 (MOLM-13 cells; read-out: IC50): 0.023 to 0.055 nM
- IC50 (KG-1 cells; read-out: IC50): 0.144 to 0.313 nM
- IC50 (KG-1 cells; read-out: IC50 (AVG ± standard deviation)): 0.242 ± 0.088 nM
- IC50 (K-562 (low CD33) cells): 24 to 66 nM
- IC50 ([5]; Ramos.2G6.4C10 cells, no CD33 expression): > 300 nM
- IC50 ([6]; no CD33 expression, treated for 3 days): > 300 nM
- toxicity (in words) [7]: no toxicity was detected
- mice in which tumors disappeared without regrowth [7, 12]: 5/5
- AUC(1-9 d), partial area under curve between 1 d-9 d [8]: 200 mg·days/L
- in vitro therapeutic window [9]: greater than 10000

Substance: TA99
- tumor growth (in words) [10]: tumors grew rapidly
- Number of mice with <200 mm^3 tumor at end of study ([1]; 3 × 10 mg/kg i.v. on days 2, 7 and 12 after inoculation, 10 mice/group, 28 days): 0
- toxicity (in words) ([4]; 20 mg/kg or 30 mg/kg): No toxicity was observed

Substance: FLCPeMa: cysteine engineered flanvotumab HC N299C conjugated with PeMa (MA-Ac-EDA-PNU), DAR 1.7
- Dose-limiting toxicity dose level [4]: 20 mg/kg
- MTD (maximum tolerated dose) [4]: 15 mg/kg

Substance: gemtuzumab-maleimidoacetyl-β-Ala-Val-Ser(Glc)-PAB-MMAU [GMAuM]
- toxicity (in words) [7]: no toxicity was detected
- mice in which tumors disappeared without regrowth [7, 12]: 5/5
- AUC(1-9 d), partial area under curve between 1 d-9 d [8]: 160 mg·days/L

Substance: FLCPeMg: cysteine engineered flanvotumab HC N299C conjugated with PeMg (MA-Ac-β-Ala-VS(GlcA)-EDA-PNU), DAR 2.2
- IC50 values against IGR-1 cells (in words) [2]: picomolar
- Number of mice with <200 mm^3 tumor at end of study [1, 11]: 2
- Dose-limiting toxicity dose level [4]: 12.5 mg/kg

Substance: lintuzumab
- Unconjugated antibody: no effect up to (highest concentration tested) (KG-1 cells; KG-1 cells): > 300 nM
- Unconjugated antibody: no effect up to (highest concentration tested) ([5]; Ramos cells): > 300 nM
- Unconjugated antibody: no effect up to (highest concentration tested) [6]: > 300 nM
- duration of tumor growth inhibition ([7]; 5 mice/group): about 20 days

Substance: gemtuzumab
- tumor growth (in words) [7, 12]: tumors grew fast
